Laboratory results published in ChEMBL document CHEMBL5036336, “Structure-Guided Optimization Provides a Series of TTK Protein Inhibitors with Potent Antitumor Activity” (J Med Chem, 2021).
Active and inactive are the calls of the source. The rule behind the calls is not given here.

Key:
[1] = Toxicity in CB17-SCID mouse xenografted with human TNBC PDX-CAL-51 cells assessed as body weight loss at 80 mg/kg, iv administered once per week for 3 weeks; format: organism-based; settings: in vivo, 504 h
[2] = Mean residence time in rat at 2 mg/kg, iv; format: ADME, organism-based; settings: in vivo
[3] = molecular target: MAP kinase-activated protein kinase 3 (Homo sapiens, UniProt Q16644); experiment: Inhibition of MAPKAPK3 (unknown origin) at 3 uM by Z-lyte assay relative to control
[4] = molecular target: Leucine-rich repeat serine/threonine-protein kinase 2 (Homo sapiens, UniProt Q5S007); experiment: Inhibition of LRRK2 (unknown origin) at 3 uM by ADAPTA assay relative to control
[5] = Volume of distribution at steady state in mouse at 2 mg/kg, iv; format: ADME, organism-based; settings: in vivo, read-out: Vdss
[6] = molecular target: Leucine-rich repeat serine/threonine-protein kinase 2 (Homo sapiens, UniProt Q5S007, G2019S); experiment: Inhibition of LRRK2 G2019S mutant (unknown origin) by ADAPTA assay
[7] = test system: Leucine-rich repeat serine/threonine-protein kinase 2 (Homo sapiens), Q5S007 [G2019S]; experiment: Inhibition of LRRK2 G2019S mutant (unknown origin) at 3 uM by ADAPTA assay relative to control
[8] = molecular target: Testis-specific serine/threonine-protein kinase 2 (Homo sapiens) (UniProt Q96PF2); experiment: Inhibition of TSSK2 (unknown origin) at 3 uM by Z-lyte assay relative to control
[9] = Plasma protein binding in mouse; format: ADME, cell-free; settings: read-out: PPB
Homo sapiens [10] = organism: Homo sapiens; experiment: Selectivity ratio of IC50 for inhibition of TSSK2 (unknown origin) to IC50 for inhibition of TTK (unknown origin)
[11] = Inhibition of KNL1 autophosphorylation at T943 residue in human CAL-51 cells measured after 1 hr by Western blot analysis; format: cell-based; settings: CAL-51, 1 h
[12] = molecular target: Mitogen-activated protein kinase 9 (Homo sapiens, UniProt P45984); experiment: Inhibition of JNK2 (unknown origin) by Z-lyte assay
CAL-51 = experiment: Antitumor activity against human TNBC PDX-CAL-51 cells xenografted in CB17-SCID mouse assessed as tumor growth inhibition at 25 to 80 mg/kg, iv administered once per week for 3 weeks; format: functional, organism-based; settings: dose 25-80 mg/kg
[13] = AUC in mouse at 2 mg/kg, iv; format: ADME, organism-based; set-up: dose 2 mg/kg; settings: in vivo
Homo sapiens [14] = organism: Homo sapiens; experiment: Selectivity ratio of IC50 for inhibition of LRRK2 G2019S mutant (unknown origin) to IC50 for inhibition of TTK (unknown origin)
Homo sapiens [15] = organism: Homo sapiens; experiment: Selectivity ratio of IC50 for inhibition of LRRK2 (unknown origin) to IC50 for inhibition of TTK (unknown origin)
[16] = molecular target: Muscarinic acetylcholine receptor M3 (Homo sapiens) (UniProt P20309); experiment: Inhibition of muscarinic M3 receptor (unknown origin) at 10 uM relative to control
Homo sapiens [17] = organism: Homo sapiens; experiment: Selectivity index, ratio of IC50 for inhibition of CHK2 (unknown origin) to IC50 for inhibition of TTK (unknown origin)
[18] = molecular target: Testis-specific serine/threonine-protein kinase 1 (Homo sapiens, UniProt Q9BXA7); experiment: Inhibition of TSSK1 (unknown origin) by Z-lyte assay
[19] = molecular target: Serine/threonine-protein kinase Chk2 (Homo sapiens, UniProt O96017); experiment: Inhibition of CHK2 (unknown origin) by Z-lyte assay
Homo sapiens [20] = organism: Homo sapiens; experiment: Inhibition of Bombesin receptor (unknown origin) at 10 uM relative to control

Chain of Muscarinic acetylcholine receptor M3 (Homo sapiens) (P20309 whole entry, looked up): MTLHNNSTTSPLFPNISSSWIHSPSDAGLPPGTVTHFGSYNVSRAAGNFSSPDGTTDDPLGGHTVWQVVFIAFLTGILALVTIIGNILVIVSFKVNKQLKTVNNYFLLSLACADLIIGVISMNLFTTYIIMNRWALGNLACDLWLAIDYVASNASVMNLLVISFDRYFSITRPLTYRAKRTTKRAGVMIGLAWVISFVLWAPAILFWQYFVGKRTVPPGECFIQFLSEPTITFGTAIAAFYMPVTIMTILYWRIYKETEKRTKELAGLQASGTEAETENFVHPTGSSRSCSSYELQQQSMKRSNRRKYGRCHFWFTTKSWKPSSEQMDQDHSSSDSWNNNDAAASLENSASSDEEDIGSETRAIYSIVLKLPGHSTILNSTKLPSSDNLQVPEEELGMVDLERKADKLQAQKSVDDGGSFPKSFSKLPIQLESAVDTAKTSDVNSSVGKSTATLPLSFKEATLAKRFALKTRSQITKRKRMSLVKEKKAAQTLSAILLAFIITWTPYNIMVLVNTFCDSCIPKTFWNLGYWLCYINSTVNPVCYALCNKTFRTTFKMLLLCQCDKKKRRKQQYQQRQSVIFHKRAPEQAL
Chain of Mitogen-activated protein kinase 9 (P45984 whole entry): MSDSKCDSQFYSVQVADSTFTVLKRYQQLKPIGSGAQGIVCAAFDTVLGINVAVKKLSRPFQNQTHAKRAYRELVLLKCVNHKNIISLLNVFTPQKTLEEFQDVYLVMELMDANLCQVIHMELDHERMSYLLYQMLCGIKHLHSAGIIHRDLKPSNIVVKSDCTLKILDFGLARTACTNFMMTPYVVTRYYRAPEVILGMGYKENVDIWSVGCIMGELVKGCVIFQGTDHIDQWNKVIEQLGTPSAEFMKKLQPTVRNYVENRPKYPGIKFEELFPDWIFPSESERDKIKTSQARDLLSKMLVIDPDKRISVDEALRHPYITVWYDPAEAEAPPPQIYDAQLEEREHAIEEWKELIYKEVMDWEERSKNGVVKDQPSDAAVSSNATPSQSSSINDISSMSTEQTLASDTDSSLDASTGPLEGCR
Chain of Serine/threonine-protein kinase Chk2 (O96017 whole entry): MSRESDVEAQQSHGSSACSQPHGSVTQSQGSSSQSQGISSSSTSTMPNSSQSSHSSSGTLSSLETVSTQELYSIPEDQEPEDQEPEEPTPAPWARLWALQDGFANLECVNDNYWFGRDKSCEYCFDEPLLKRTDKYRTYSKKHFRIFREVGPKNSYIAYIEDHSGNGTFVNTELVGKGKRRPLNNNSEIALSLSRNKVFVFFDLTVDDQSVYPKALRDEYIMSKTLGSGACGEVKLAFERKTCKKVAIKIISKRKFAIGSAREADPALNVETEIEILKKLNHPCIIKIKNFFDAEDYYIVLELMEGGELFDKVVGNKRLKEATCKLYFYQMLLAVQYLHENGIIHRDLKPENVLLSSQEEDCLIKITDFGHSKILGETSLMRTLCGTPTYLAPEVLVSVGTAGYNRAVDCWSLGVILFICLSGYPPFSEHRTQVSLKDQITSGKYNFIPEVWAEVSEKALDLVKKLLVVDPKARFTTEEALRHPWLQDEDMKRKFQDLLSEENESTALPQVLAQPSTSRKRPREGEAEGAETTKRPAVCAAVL
Chain of Testis-specific serine/threonine-protein kinase 1 (Q9BXA7 whole entry): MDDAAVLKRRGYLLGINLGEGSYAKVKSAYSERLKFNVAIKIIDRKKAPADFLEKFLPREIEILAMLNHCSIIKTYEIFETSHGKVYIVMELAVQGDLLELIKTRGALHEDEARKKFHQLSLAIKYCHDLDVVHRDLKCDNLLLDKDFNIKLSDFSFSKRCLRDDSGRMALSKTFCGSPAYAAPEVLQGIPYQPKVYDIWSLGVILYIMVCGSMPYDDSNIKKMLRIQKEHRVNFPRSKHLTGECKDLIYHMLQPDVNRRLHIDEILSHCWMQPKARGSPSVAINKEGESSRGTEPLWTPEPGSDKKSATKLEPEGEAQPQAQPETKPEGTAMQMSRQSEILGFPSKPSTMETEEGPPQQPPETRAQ
Chain of MAP kinase-activated protein kinase 3 (Q16644 whole entry, looked up): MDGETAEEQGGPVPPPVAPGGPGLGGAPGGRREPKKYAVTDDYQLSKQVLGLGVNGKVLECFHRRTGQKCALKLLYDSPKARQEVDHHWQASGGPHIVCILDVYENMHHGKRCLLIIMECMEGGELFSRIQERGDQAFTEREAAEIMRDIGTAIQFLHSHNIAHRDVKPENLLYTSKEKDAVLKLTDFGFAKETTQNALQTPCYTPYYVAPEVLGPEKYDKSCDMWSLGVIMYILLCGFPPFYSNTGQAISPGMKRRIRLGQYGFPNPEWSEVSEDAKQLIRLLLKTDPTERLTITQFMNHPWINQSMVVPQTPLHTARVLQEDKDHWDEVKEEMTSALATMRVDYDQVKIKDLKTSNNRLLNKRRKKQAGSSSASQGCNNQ
Chain of Leucine-rich repeat serine/threonine-protein kinase 2 (Homo sapiens), Q5S007 [G2019S] (Q5S007 whole entry G2019S): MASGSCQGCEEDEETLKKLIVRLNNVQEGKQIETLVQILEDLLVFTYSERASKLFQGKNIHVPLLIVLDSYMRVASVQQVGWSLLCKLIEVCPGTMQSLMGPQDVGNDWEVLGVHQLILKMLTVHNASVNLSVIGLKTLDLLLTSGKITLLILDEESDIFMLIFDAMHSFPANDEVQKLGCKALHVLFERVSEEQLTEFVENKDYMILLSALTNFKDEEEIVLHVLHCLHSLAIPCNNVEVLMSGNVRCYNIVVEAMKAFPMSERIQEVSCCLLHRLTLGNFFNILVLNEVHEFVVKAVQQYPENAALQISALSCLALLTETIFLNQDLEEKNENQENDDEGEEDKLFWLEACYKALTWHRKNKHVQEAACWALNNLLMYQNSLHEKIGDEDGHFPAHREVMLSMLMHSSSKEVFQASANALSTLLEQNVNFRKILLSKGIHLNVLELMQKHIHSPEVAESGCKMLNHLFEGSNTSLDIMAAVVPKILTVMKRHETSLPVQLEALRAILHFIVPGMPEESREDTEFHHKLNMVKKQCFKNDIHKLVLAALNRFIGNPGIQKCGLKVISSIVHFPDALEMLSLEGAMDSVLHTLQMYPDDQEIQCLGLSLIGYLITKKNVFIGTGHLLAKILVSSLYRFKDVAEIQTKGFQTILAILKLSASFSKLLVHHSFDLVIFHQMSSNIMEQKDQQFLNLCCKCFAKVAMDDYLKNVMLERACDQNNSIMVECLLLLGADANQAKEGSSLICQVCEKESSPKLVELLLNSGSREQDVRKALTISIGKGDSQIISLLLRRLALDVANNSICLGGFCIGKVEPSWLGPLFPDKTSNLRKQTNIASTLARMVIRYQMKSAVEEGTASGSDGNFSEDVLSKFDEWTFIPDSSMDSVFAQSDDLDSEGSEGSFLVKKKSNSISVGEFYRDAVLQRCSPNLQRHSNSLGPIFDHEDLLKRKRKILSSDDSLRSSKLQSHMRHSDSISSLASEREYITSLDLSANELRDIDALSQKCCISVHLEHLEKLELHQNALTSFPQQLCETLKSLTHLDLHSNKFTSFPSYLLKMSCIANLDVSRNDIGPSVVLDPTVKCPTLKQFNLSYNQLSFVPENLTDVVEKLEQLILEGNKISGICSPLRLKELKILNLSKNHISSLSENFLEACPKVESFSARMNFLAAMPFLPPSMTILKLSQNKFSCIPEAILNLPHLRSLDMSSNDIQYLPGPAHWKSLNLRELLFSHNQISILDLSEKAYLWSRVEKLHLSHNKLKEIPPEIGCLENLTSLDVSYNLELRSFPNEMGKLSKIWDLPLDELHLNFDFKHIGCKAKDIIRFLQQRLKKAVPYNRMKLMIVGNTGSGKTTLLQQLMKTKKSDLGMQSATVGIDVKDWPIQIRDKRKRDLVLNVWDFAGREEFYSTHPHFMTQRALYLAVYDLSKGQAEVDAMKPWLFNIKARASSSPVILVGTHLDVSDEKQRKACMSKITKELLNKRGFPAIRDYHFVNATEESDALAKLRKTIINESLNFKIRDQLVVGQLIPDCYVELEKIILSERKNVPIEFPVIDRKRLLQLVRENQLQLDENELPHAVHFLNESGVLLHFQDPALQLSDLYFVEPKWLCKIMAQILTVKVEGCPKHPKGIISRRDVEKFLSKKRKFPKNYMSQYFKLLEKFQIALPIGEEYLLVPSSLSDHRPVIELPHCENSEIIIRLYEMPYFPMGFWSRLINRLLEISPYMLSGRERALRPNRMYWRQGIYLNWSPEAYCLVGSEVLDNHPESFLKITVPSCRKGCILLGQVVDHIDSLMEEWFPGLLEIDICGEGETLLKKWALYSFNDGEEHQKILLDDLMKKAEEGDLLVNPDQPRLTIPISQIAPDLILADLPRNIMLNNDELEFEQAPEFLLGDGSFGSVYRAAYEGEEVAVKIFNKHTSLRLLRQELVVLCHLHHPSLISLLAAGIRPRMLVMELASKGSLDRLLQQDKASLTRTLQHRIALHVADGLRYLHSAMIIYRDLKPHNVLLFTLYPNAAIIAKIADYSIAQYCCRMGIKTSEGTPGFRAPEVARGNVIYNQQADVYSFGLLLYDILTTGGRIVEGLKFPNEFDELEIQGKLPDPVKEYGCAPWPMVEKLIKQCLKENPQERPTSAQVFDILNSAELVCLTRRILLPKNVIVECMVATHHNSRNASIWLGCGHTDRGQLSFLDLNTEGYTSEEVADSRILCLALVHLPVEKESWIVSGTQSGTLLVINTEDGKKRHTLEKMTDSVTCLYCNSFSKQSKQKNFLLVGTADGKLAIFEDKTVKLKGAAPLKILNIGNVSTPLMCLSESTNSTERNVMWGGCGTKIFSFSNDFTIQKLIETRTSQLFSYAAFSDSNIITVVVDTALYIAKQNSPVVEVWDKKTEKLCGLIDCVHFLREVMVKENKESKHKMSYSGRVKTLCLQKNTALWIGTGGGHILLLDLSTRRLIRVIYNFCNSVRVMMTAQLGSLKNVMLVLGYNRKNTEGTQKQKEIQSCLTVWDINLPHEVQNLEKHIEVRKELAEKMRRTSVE
Chain of Leucine-rich repeat serine/threonine-protein kinase 2 (Homo sapiens, UniProt Q5S007, G2019S) (Q5S007 whole entry G2019S): as above
Chain of Leucine-rich repeat serine/threonine-protein kinase 2 (Homo sapiens, UniProt Q5S007) (Q5S007 whole entry): as the sequence (Q5S007 whole entry G2019S) above, with S2019G counted along it

SMILES: CCc1cccc(CC)c1N1CCn2cc(-c3nc(Nc4ccc(N5CCC(C(=O)N6CC7(CN(C)C7)C6)CC5)cc4OC)nc4[nH]ccc34)cc2C1=O
- Activity [1]: Non-Toxic
- MRT [2]: 4.3 h
- inhibition [3]: > 80%
- inhibition [4]: > 80%
- Vd [5]: 0.53 L/kg
- IC50 [6]: 229 nM
- inhibition [7]: > 80%
- inhibition [8]: > 80%
- fraction unbound [9]: < 0.01
- Ratio IC50 (Homo sapiens [10]): 315
- IC50 [11]: 48 nM
- IC50 [12]: 602 nM
- Activity (CAL-51): Active
- AUC [13]: 5.29 µM·h
- Ratio IC50 (Homo sapiens [14]): 76.3
- Ratio IC50 (Homo sapiens [15]): 114
- inhibition [16]: 80%
- Ratio IC50 (Homo sapiens [17]): 182
- IC50 [18]: 35 nM
- IC50 [19]: 545 nM
- inhibition (Homo sapiens [20]): 80%
